Several values for one entry are separate records, joined by “and”; a condition that tells them apart may be missing. Equal values may be shown once.
Tested on: ear edema (croton oil irritant mixture)
Experiment: anti-inflammatory activity against croton oil-induced ear edema (based on Tonelli et al), topical
Format: in vivo, Sprague-Dawley female rats
Details: right ear, in irritant mixture, 6 hours
Procedure: Compounds of formula I were tested for anti-inflammatory activity by the following procedure based on Tonelli et al, Endocrinology 77, 625 (1965):
Sprague-Dawley female rats, weighing 60 to 70 grams, are used in groups of 10. Ear edema is induced by inuncting both sides of the ear with an irritant mixture. This mixture containing 1% croton oil, 20% pyridine, 5% water and 74% diethyl ether, with or without test compound, is applied only once and only to the right ear. Six hours later the animals are sacrificed; a 9 mm diameter portion of both ears is punched out with a cork borer and weighed. The anti-inflammatory activity of the test agent is assessed by expressing the percent of the difference in average weight increase between the ears of the control groups and of the treated group. [formula]
Results found for representative compounds of formula I are tabulated below, together with results found in 3 tests for the preferred compound reported by Brown et al in J. Med. Chem.(loc-cit)namely 4-(p-chlorophenyl)-2-phenylthiazole-5-acetic acid (B): […]

| Compound | % Inhibition (dose 50 μg) | % Inhibition (dose 500 μg) | % Inhibition (dose 2.5 mg) | % Inhibition (dose 5 mg) |
| --- | --- | --- | --- | --- |
| CCCCC(=O)Oc1ccc(-c2nc(-c3ccc(Cl)cc3)c(CC(=O)O)s2)cc1 [R = COC4 H9, 4-(4-Chlorophenyl)-2-(4-Valeryloxyphenyl)thiazole-5-acetic acid] | 41% | 54% | 71% | 87% |
| CC(=O)Oc1ccc(-c2nc(-c3ccc(Cl)cc3)c(CC(=O)O)s2)cc1 [R = COCH3, 2-(4-Acetoxyphenyl)-4-(4-chlorophenyl)thiazole-5-acetic acid] | -14% | 41% | 85% | 100% |
| O=C(O)Cc1sc(-c2ccccc2)nc1-c1ccc(Cl)cc1 [4-(p-chlorophenyl)-2-phenylthiazole-5-acetic acid, reference compound] |  |  | 93% and 79% and 89% | 92% and 93% |
